We go through five compounds from US11571011B2, “Compositions of steviol multiglycosylated derivatives and stevia components” (SWEET GREEN FIELDS USA LLC, priority 2015, dated 2023).

A short description of data set [1]: Evaluation of taste profile: sugar like, bitterness, aftertaste, lingering scored 0-5 by sensory panel. It is filed as in vivo, human. As to the method: 1. The components where mixed and then dissolved in aqueous citric acid (pH 3.8) with ultrasound at room temperature and left to sit for 30 min.
For evaluation of taste profile, the samples were tested and were scored 0-5 according to the increasing sugar like, bitterness, aftertaste and lingering taste profiles. The results were recorded as the mean value of the results provided by the panel.

Data set [2] is described as follows: Calculated versus measured sweetness of GSG / steviol glycoside compositions from sweetness curves (synergistic effect). Particulars: for Calculated SE of RA97: citric acid pH 3.8. Also on record: species or system human. As to the method:
The sweetness of GSG-RA50 and RA97 compositions at varying concentrations was measured according to the sweetness curve (FIG. 9), and the combined sweetness of each composition of GSG-RA50 and RA97 was calculated and compared with the measured value in Table 19.
Calculated SE (ppm sucrose) of GSG-RA50 per ppm=calculated SE of GSG-RA50/concentration of GSG-RA50. Measured sweetness (ppm sucrose) of GSG-RA50 per ppm=(Measured SE−Calculated SE of RA97)/concentration of GSG-RA50.
The sweetness of GSG-RA95 and rebaudioside A, 97% purity (RA) RA97 compositions at varying concentrations was measured according to the sweetness curve (FIG. 13), and the combined sweetness of each composition of GSG-RA95 and RA97 was calculated and compared with the measured value in Table 23.
Calculated sweetness (ppm sugar) of GSG-RA50 per ppm=calculated SE of GSG-RA50/concentration of GSG-RA50. Measured sweetness (ppm sugar) of GSG-RA50 per ppm=(Measured SE-calculated SE of RA97)/concentration of GSG-RA50.
Calculated sweetness (ppm sugar) of GSG-RA20 plus RA97 per ppm=calculated SE of GSG-RA20 plus RA97/concentration of GSG-RA20 plus RA97
Measured sweetness (ppm sugar) of GSG-RA20 plus RA97 per ppm=(Measured SE of GSG-RA20 plus RA97−sugar concentration)/concentration of GSG-RA20 plus RA97

Data set [3] can be described thus: Solubility of spray-dried GSG-RA20 / steviol glycoside 1:1 compositions (Example 56). Type of data set: physicochemical. As to the method:
GSG-RA20 was mixed with RA, RB, RD or stevioside as the ratio of 1:1 by weight so as to obtain a mixture, a certain amount of solvent, such as water, ethanol/water mixture, was added into the obtained mixture, heated to a certain temperature until the mixture was completely dissolved, and the temperature was kept for an hour. The solution was treated by spray drying to obtain the composition comprising GSG and SG.

For data set [4] the following is noted: background; cited from earlier work.
The mark [5] stands for this setting: RA97 400 ppm (control), citric acid pH 3.8.
Setting [6] is: total solid content 350 ppm, panel score.
The mark [7] stands for this setting: 0.01 g of each component in 10 ml water.

Several values for one entry are separate records, joined by “and”; a condition that tells them apart may be missing. Equal entries are not always repeated.

`C=C1C[C@@]23CC[C@H]4[C@@](C)(CCC[C@@]4(C)C(=O)O[C@@H]4O[C@H](CO)[C@@H](O)[C@H](O)[C@H]4O)[C@@H]2CC[C@]1(O[C@@H]1O[C@H](CO)[C@@H](O)[C@H](O[C@@H]2O[C@H](CO)[C@@H](O)[C@H](O)[C@H]2O)[C@H]1O[C@@H]1O[C@H](CO)[C@@H](O)[C@H](O)[C@H]1O)C3` [RA97, Rebaudioside A]: the Aftertaste in data set [1] (setting [5]) and in data set [1] (setting [6]) was 3 each time. The Bitterness in data set [1] (setting [5]) and in data set [1] (setting [6]) was 2 throughout. For the same compound, the Lingering in data set [1] (setting [5]) and in data set [1] (setting [6]) was 4 each time. Moreover, the Sugar like in data set [1] (setting [5]) and in data set [1] (setting [6]) was 3 in each case. Also, the “Calc. SE of RA97” value in data set [2] (RA97 50 ppm, read from sweetness curve) was 1.5%; in data set [2] (RA97 50 ppm, with GSG-RA90, 350 ppm total solids), 1.5%; in data set [2] (RA97 100 ppm, read from sweetness curve), 3% and 3.2%; in data set [2] (RA97 100 ppm, with GSG-RA90, 350 ppm total solids), 3.2%; in data set [2] (RA97 100 ppm, with GSG-RA95, 200 ppm total solids) it was 3%; in data set [2] (RA97 150 ppm, read from sweetness curve) it was 4.2% and 4%. The “Calc. SE of RA97” value is reported as 4% in data set [2] (RA97 150 ppm, with GSG-RA90, 350 ppm total solids); 4.2% in data set [2] (RA97 150 ppm, with GSG-RA95, 200 ppm total solids); 5% in data set [2] (RA97 200 ppm, read from sweetness curve); 5% in data set [2] (RA97 200 ppm, with GSG-RA90, 350 ppm total solids); 6% in data set [2] (RA97 250 ppm, read from sweetness curve); 6% in data set [2] (RA97 250 ppm, with GSG-RA90, 350 ppm total solids). Further, the “Calc. SE of RA97” value in data set [2] (RA97 300 ppm, read from sweetness curve) is 6.9% and 7%; in data set [2] (RA97 300 ppm, with GSG-RA90, 350 ppm total solids), 6.9%; in data set [2] (RA97 300 ppm, with GSG-RA95, 500 ppm total solids), 7%; in data set [2] (RA97 400 ppm, read from sweetness curve) it was 8.25%; in data set [2] (RA97 400 ppm, with GSG-RA95, 500 ppm total solids) it was 8.25%. Further, the “Calculated SE of RA97” value in data set [2] (RA97 100 ppm) is 3%; in data set [2] (RA97 150 ppm) it was 4.20%; in data set [2] (RA97 200 ppm), 5%; in data set [2] (RA97 250 ppm) it was 6%; in data set [2] (RA97 300 ppm) it was 6.90%. Moreover, the “Measured SE of the composition” value in data set [2] (RA97 alone, 350 ppm, no GSG) is 8%. Also, the results for the “Calculated SE of the single component (steviol glycoside composition or GSG) alone” value in data set [2] (component at 150 ppm), in data set [2] (component at 200 ppm) and in data set [2] (component at 250 ppm) were 4.00%, 5.00% and 6.00%, respectively.
`C=C1C[C@@]23CC[C@H]4[C@@](C)(CCC[C@@]4(C)C(=O)O[C@@H]4O[C@H](CO)[C@@H](O)[C@H](O)[C@H]4O)[C@@H]2CC[C@]1(O[C@@H]1O[C@H](CO)[C@@H](O)[C@H](O[C@@H]2O[C@H](CO)[C@@H](O)[C@H](O)[C@H]2O)[C@H]1O[C@@H]1O[C@H](CO)[C@@H](O)[C@H](O)[C@H]1O)C3` [Rebaudioside A] came in with a Stable time in data set [3] (1 g in 10 ml water) of 2 h.
For the compound `C=C1C[C@@]23CC[C@H]4[C@@](C)(CCC[C@@]4(C)C(=O)O[C@@H]4O[C@H](CO)[C@@H](O)[C@H](O)[C@H]4O[C@@H]4O[C@H](CO)[C@@H](O)[C@H](O)[C@H]4O)[C@@H]2CC[C@]1(O[C@@H]1O[C@H](CO)[C@@H](O)[C@H](O[C@@H]2O[C@H](CO)[C@@H](O)[C@H](O)[C@H]2O)[C@H]1O[C@@H]1O[C@H](CO)[C@@H](O)[C@H](O)[C@H]1O)C3` [Rebaudioside D], the Stable time entry in data set [3] (setting [7]) is “insoluble”.
Consider `C=C1C[C@@]23CC[C@H]4[C@@](C)(CCC[C@@]4(C)C(=O)O[C@@H]4O[C@H](CO)[C@@H](O)[C@H](O)[C@H]4O)[C@@H]2CC[C@]1(O[C@@H]1O[C@H](CO)[C@@H](O)[C@H](O)[C@H]1O[C@@H]1O[C@H](CO)[C@@H](O)[C@H](O)[C@H]1O)C3` [Stevioside], for which the “times sweeter than sugar” value in data set [4] was “approximately 300 times”.
As to Rebaudioside B, the Stable time entry in data set [3] (setting [7]) is “insoluble”.
